Experimental data from PMC7076388 (Pharmaceutics, 2020).
Entries after “also recorded” stand apart in the source; their conditions may differ. Read-outs that look alike come from different tables or passages of the source.

Experiments:
[1] = biological target: T1, LOX from glycine max (soybean) (Glycine max, UniProt P08170); test: Lipoxygenase glycine max (soybean) assay; assay type: biochemical; details: for LOX inhibition at single concentration: 100 µM; for IC50: dose-response assay, read-out: IC50 for LOX inhibition
T1 construct: purchased Sigma-Aldrich
T1 sequence (P08170 1-839): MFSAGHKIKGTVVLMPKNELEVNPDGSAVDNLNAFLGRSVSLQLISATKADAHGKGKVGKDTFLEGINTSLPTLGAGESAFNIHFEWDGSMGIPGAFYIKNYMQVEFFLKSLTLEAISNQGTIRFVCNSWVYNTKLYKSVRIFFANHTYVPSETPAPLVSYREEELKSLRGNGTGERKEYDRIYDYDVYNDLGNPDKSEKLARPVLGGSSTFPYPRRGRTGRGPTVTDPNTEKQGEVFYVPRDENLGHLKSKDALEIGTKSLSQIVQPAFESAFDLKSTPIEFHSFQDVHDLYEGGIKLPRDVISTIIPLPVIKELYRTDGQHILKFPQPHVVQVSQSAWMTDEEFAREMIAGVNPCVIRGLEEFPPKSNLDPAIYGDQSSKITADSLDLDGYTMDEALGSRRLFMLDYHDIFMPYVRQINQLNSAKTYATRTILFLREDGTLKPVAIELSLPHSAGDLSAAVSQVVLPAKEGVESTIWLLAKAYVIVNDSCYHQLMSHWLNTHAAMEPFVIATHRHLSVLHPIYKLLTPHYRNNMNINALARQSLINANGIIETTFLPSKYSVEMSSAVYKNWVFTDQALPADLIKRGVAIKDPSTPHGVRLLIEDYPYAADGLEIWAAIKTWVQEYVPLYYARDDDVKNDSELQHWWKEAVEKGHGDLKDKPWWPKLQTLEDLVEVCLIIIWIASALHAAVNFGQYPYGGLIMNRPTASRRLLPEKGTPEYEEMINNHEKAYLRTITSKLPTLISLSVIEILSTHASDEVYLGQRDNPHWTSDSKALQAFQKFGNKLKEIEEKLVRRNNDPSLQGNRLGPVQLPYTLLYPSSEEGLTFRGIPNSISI
Procedure: The inhibitory effect on LOX was assessed in 96-well plates, using a modified version of a previously reported procedure from Pereira et al.. […] After 5 min pre-incubation at room temperature, the reaction was started by addition of linoleic acid substrate (20 µL of a 4.18 mM solution in ethanol). The reaction was monitored at 234 nm using a multiplate reader (Multiskan Thermo Fisher Scientific Oy, Vantaa, Finland), for 3 min.

[2] = tested on: RAW 264.7 cells; test: MTT cell viability, RAW 264.7 macrophages; assay type: cell-based, murine; details: for cytotoxic effect on RAW 264.7 viability: up to 100 µM, 24 h
Procedure: (§1) Adenocarcinoma gastric cells (AGS; Sigma-Aldrich, St. Louis, MO, USA), murine-macrophage cell line (RAW 264.7; American Type Culture Collection, LGC Standards S.L.U., Barcelona, Spain), and human foetal lung fibroblasts (MRC-5; ECACC, Porton Down Salisbury, UK) were cultured as a monolayer at 37 °C in a humidified incubator with 5% carbon dioxide. AGS and RAW 264.7 cells were grown in DMEM, supplemented with 1% streptomycin/penicillin and 10% FBS (Gibco®). MRC-5 cells were grown in MEM, supplemented with 1% streptomycin/penicillin and 10% FBS.
(§2) Cell viability was evaluated by the MTT reduction assay. Cells were cultured in 96-well plates (15,000 cells/well for AGS, 25,000 cells/well for RAW and 20,000 cells/well for MRC-5) and allowed to attach for 24 h. After incubation with compounds for 24 h, MTT (0.5 mg/mL final concentration) was added to each well and the plate was incubated for 75 min at 37 °C. Formazan crystals were dissolved by the addition of a DMSO: isopropanol mixture (3:1) and then quantified spectrophotometrically at 570 nm using a microplate reader (Multiskan Thermo Fisher Scientific Oy, Vantaa, Finland).

[3] = tested on: AGS cells; test: MTT cell viability, AGS cells; assay type: cell-based; details: 24 h; for toxicity towards AGS cells: 100 µM
Procedure: as §1, §2

[4] = biological target: T2, 20S proteasome isolated from erythrocytes (Homo sapiens, UniProt P28074); test: 20S proteasome inhibition (chymotrypsin-like activity); assay type: biochemical; design: purified 20S proteasome isolated from erythrocytes (Enzo Life Sciences); purchased Enzo Life Sciences; host or cells: erythrocytes; details: 100 µM
Procedure: Proteasome activity was measured by adapting a method described by Silva et al.. The substrate used to study chymotrypsin-like enzyme activity was Suc-Leu-Leu-Val-Tyr-AMC and the enzyme used was purified 20S proteasome isolated from erythrocytes (Enzo Life Sciences). […] The plate was incubated at 37 °C in the dark for 2 h. […] Lactacystin was used as positive control.

[5] = tested on: LPS-induced •NO production in RAW 264.7 cells; test: LPS-induced NO production in RAW 264.7 (Griess); assay type: cell-based, murine; details: Mus musculus, RAW264.7; RAW 264.7, LPS 1 µg/mL; read-out: IC50 (LPS-dependent •NO production)
Procedure: RAW 264.7 cells were cultured in 96-well plates (35,000 cells/well) for 24 h and then pre-treated with different concentrations of each compound. After 2 h, LPS was added (final concentration 1 µg/mL) and the plates were incubated at 37 °C, in a humidified atmosphere of 5% CO2. After 22 h, 75 µL of cell supernatant was transferred to a 96-well plate and mixed with 75 µL of Griess reagent (1% sulfanilamide and 0.1% naphthylethylenediamine dihydrochloride in 2% H3PO4). The plate was incubated at room temperature for 10 min in the dark and then the absorbance was read at 540 nm using a microplate reader (Multiskan Thermo Fisher Scientific Oy, Vantaa, Finland).

[6] = MTT cell viability, MRC-5 cells; assay type: cell-based; details: human, MRC-5 cells (human foetal lung fibroblasts)
Procedure: as §1, §2

[7] = Solubility in enzymatic assay buffer; assay type: physicochemical
[8] = tested on: LPS-induced •NO production in RAW 264.7 cells; details: preliminary study; cited from earlier work
[9] = biological target: T3, COX-2 (Homo sapiens, UniProt P35354); design: method as in PMID 30987203; details: 25 µM; low selectivity towards COX-2; cited from earlier work
T3 construct: purchased Cayman Chemical
T3 sequence (P35354 18-604): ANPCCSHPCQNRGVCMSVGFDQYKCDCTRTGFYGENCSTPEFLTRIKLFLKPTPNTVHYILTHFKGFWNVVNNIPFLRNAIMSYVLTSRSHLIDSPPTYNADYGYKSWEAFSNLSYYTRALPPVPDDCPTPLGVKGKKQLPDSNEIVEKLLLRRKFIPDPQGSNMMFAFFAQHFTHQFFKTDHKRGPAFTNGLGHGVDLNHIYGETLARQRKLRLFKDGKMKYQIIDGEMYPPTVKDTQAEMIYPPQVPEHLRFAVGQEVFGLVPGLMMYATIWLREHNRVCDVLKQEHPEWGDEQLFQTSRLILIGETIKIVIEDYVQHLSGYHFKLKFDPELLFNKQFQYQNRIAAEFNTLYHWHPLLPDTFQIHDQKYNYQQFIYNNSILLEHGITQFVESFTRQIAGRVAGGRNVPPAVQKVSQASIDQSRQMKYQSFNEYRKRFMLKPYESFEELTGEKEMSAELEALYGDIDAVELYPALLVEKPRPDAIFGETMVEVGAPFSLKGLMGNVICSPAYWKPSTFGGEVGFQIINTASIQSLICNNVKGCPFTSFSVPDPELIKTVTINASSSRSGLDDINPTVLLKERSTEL

[10] = biological target: T4, COX-1 (Ovis aries, UniProt P05979); design: method as in PMID 30987203; details: 25 µM; cited from earlier work
T4 construct: purchased Cayman Chemical
T4 sequence (P05979 25-600): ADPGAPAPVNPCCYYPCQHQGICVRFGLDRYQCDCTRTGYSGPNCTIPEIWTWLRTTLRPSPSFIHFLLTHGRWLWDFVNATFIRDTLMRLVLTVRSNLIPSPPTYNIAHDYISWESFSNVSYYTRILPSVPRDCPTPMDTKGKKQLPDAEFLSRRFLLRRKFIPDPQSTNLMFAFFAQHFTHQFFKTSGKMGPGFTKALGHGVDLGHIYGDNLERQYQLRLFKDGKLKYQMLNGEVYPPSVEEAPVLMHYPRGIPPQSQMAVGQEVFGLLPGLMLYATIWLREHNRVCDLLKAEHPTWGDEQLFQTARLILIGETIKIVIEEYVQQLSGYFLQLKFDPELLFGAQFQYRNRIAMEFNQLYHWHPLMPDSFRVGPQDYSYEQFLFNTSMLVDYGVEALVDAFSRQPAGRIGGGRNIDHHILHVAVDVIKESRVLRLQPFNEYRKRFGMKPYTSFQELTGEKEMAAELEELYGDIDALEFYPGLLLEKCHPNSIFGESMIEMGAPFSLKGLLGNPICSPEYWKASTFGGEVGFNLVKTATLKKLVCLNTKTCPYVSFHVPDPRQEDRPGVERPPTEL

[11] = tested on: RAW 264.7 cells; design: method as in PMID 30987203; details: up to 100 µM, 24 h, MTT; cited from earlier work
[12] = biological target: T1, LOX from glycine max (soybean); design: method as in PMID 30987203; details: 100 µM; cited from earlier work
[13] = biological target: T4, COX-1; test: COX fluorescent inhibitor screening assay, COX-1; assay type: biochemical
Procedure: (§3) The assay was performed using the COX fluorescent inhibitor screening assay kit (Cayman chemical, MI, USA), with some modifications. […] After 5 min of incubation at room temperature, 5 µL of 10-acetyl-3,7-dihydroxyphenoxazine (ADHP) and 20 µL of a solution containing arachidonic acid (0.5 mM) and KOH (2.5 mM) were added to each well.

[14] = biological target: T3, COX-2; test: COX fluorescent inhibitor screening assay, COX-2; assay type: biochemical
Procedure: as §3

[15] = biological target: T2, 20S proteasome isolated from erythrocytes; details: reported in literature; cited from earlier work

| SMILES | IC50 [1] [µM] | LOX inhibition at single concentration [1] | cytotoxic effect on RAW 264.7 viability [2] | toxicity towards AGS cells [3] | further results |
| --- | --- | --- | --- | --- | --- |
| COc1ccc2cc(C(C)C(=O)NC(Cc3c[nH]c4ccccc34)C(=O)NC(=Cc3ccccc3)C(=O)O)ccc2c1 [Compound 3, Npx-L-Trp-Z-ΔPhe-OH] | 55.9 | significantly inhibit the LOX enzyme to a similar level to naproxen | did not show any statistically significant cytotoxic effects | slightly cytotoxic | remaining activity at 100 µM ([4]; read-out: 20S proteasome enzyme activity remaining): 52%; IC50 [5]: 64.7 µM |
| COC(=O)C(=Cc1ccccc1)NC(=O)C(Cc1ccc(O)cc1)NC(=O)C(C)c1ccc2cc(OC)ccc2c1 [Compound 7, Npx-L-Tyr-Z-ΔPhe-OMe] |  |  |  |  | 20S proteasome inhibition [4]: not able to inhibit the 20S proteasome; viability at 24 h, 100 µM [6]: ~87%; solubility in COX assay medium ([7]; Tris-HCl pH 8.0): insoluble in the assay medium; solubility in LOX assay buffer solution ([7]; phosphate buffer pH 9.0): insolubility in the assay buffer solution; IC50 ([2]; Mus musculus, RAW264.7, 24 h): 23.1 µM; IC50 ([3]; Homo sapiens, AGS): 10.9 µM |
| COc1ccc2cc(C(C)C(=O)NC(CCCCN)C(=O)NC(=Cc3ccccc3)C(=O)O)ccc2c1 [Compound 5, Npx-L-Lys-Z-ΔPhe-OH] |  | not able to inhibit LOX activity | small cytotoxic effect | slightly cytotoxic | viability at 24 h, 100 µM [6]: ~79% |
| COC(=O)C(=Cc1ccccc1)NC(=O)C(CC(=O)O)NC(=O)C(C)c1ccc2cc(OC)ccc2c1 [Compound 2, Npx-L-Asp-Z-ΔPhe-OMe] | 67.4 |  |  | slightly cytotoxic | inhibition of LPS-induced production of •NO [8]: modest ability to inhibit; COX inhibition level (COX-2) [9]: modest levels of COX inhibition; COX inhibition level (COX-1) [10]: modest levels of COX inhibition; cytotoxic effect on RAW 264.7 viability [11]: did not show any statistically significant cytotoxic effects; LOX inhibition at single concentration [12]: significantly inhibit the LOX enzyme to a similar level to naproxen; also recorded: high levels of lipoxygenase (LOX) inhibition |
| COc1ccc2cc(C(C)C(=O)NC(C)C(=O)NC(=Cc3ccccc3)C(=O)O)ccc2c1 [Compound 4, Npx-L-Ala-Z-ΔPhe-OH] | 55.7 | significantly inhibit the LOX enzyme to a similar level to naproxen | did not show any statistically significant cytotoxic effects | not toxic | inhibition at 25 µM [13]: 9%; inhibition at 25 µM [14]: 66% |
| COc1ccc2cc([C@H](C)C(=O)O)ccc2c1 [Naproxen, reference compound] |  |  |  |  | inhibition at 25 µM [13]: 42.3%; proteasome inhibition [15]: not be an inhibitor of proteasome; inhibition at 25 µM [14]: 61.5% |

Now from value to molecule, other results behind:

| IC50 [1] [µM] | SMILES | LOX inhibition at single concentration [1] | cytotoxic effect on RAW 264.7 viability [2] | toxicity towards AGS cells [3] | further results |
| --- | --- | --- | --- | --- | --- |
| 60.3 | COc1ccc2cc(C(C)C(=O)NC(CCSC)C(=O)NC(=Cc3ccccc3)C(=O)O)ccc2c1 [Compound 6, Npx-L-Met-Z-ΔPhe-OH] | significantly inhibit the LOX enzyme to a similar level to naproxen | did not show any statistically significant cytotoxic effects | not toxic |  |
| 48.9 | CC=C(NC(=O)C(Cc1c[nH]c2ccccc12)NC(=O)C(C)c1ccc2cc(OC)ccc2c1)C(=O)O [Compound 8, Npx-L-Trp-Z-ΔAbu-OH] | significantly inhibit the LOX enzyme to a similar level to naproxen | did not show any statistically significant cytotoxic effects | not toxic | IC50 [5]: 84.4 µM |
